The values that follow come from patent US20260001871A1, “TRIAZOLE DERIVATIVES AS MODULATORS OF MAS-RELATED G-PROTEIN RECEPTOR D” (ESCIENT PHARMACEUTICALS, INC., priority 2022, published 2026).

Molecules are shown by their SMILES.

For the assay, the target named is human MRGPRD (Homo sapiens, UniProt Q8TDS7). In words: MRGPRD antagonist activity, IP-One HTRF assay in CHO cells stably expressing human MRGPRD (versus 100 μM β-Alanine agonist). The assay is classed as cell-based. In a few lines: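 CHO cells stably expressing human MRGPRD, plated overnight at 37 °C, were treated with antagonist plus agonist in Tris-HCl/NaCl/LiCl buffer pH 8, incubated 1 h at 37 °C then 1 h at room temperature. IP-1 accumulation read by HTRF; IC50 and percent antagonism of maximum efficacy averaged, SEM reported.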
Background: Time-resolved FRET reads energy transfer from a long-lived donor to a nearby acceptor.

Sequence of human MRGPRD (Q8TDS7 whole entry): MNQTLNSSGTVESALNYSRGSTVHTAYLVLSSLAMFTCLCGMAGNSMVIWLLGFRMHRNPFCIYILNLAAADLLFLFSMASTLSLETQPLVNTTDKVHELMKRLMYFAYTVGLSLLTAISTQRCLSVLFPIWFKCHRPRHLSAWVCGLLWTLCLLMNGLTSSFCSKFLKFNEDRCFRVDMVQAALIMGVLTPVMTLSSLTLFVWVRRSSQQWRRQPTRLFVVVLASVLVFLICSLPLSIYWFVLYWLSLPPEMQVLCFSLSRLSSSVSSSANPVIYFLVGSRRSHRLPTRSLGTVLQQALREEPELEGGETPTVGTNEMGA

Usually IC50 stands for the midpoint of a concentration-inhibition curve. With `CCn1cc(CNC(=O)c2nnn(-c3ccc(-c4ccc(C#N)cc4)cn3)c2C2CC2)cn1` [Compound 22-4], the IC50 is 1 to 3 µM.

In the case of `Cc1cc(NC(=O)c2nnn(C3CC=C(c4ccc(C#N)cc4)CC3)c2C2CC2)ccn1` (centres unmarked) [Compound 23-1, 1-(4′-cyano-2,3,4,5-tetrahydro-[1,1′-biphenyl]-4-yl)-5-cyclopropyl-N-(2-methylpyridin-4-yl)-1H-1,2,3-triazole-4-carboxamide], the IC50 was 0.1 to 0.5 µM.

In turn, `Cc1ccc(-n2nnc(C(=O)Nc3ccnc(C(F)(F)F)c3)c2C(C)C)cc1` [Compound 24-1, 5-isopropyl-1-(p-tolyl)-N-(2-(trifluoromethyl)pyridin-4-yl)-1H-1,2,3-triazole-4-carboxamide] had an IC50 of 1 to 3 µM.

For `CC(=O)c1cccc(-c2cc(-n3nnc(C(=O)Nc4ccncc4)c3C3CC3)ccc2-c2c(C)nn(C)c2C)c1` [Compound 25-1, 1-(3′-acetyl-6-(1,3,5-trimethyl-1H-pyrazol-4-yl)-[1,1′-biphenyl]-3-yl)-5-cyclopropyl-N-(pyridin-4-yl)-1H-1,2,3-triazole-4-carboxamide], the IC50 is 1 to 3 µM.

Regarding `CCO/C=C/c1cc(-n2nnc(C(=O)Nc3ccncc3)c2C2CC2)ccc1-c1c(C)nn(C)c1C` [Compound 25-2], the IC50 lay in the range of 1 to 3 µM.
